Experiments:
[1] = biological target: JAK1 (recombinant purified GST-tagged catalytic domain) (Homo sapiens (Human), UniProt P23458); assay: biochemical;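 further: biochemical assay with HTRF read-out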
[2] = biological target: JAK2 (recombinant purified GST-tagged catalytic domain) (Homo sapiens (Human), UniProt O60674); assay: biochemical;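 further: biochemical JAK kinase assay with HTRF detection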
JAK2 (recombinant purified GST-tagged catalytic domain), sequence (O60674 849-1124): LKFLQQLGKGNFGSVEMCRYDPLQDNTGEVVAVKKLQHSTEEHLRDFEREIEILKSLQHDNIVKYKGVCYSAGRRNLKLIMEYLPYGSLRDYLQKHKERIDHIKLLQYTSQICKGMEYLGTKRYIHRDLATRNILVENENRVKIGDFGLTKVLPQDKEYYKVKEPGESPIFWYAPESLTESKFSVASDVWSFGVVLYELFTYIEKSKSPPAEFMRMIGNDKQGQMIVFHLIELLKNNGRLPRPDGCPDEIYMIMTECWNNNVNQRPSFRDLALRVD

JAK1 (recombinant purified GST-tagged catalytic domain), sequence (P23458 875-1153): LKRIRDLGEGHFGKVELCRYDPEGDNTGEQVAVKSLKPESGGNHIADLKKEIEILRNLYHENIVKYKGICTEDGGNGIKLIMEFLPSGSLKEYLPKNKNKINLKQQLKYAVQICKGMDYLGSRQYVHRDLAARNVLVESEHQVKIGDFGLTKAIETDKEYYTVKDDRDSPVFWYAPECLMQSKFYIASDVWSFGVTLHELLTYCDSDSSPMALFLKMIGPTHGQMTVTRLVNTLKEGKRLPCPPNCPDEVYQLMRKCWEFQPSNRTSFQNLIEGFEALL

Row | Structure (SMILES) | IC50 [1] | IC50 [2]
1 | N#C[C@H]1C[C@H](N2CCC2)CC[C@@H]1n1cc(C(N)=O)c(Nc2ccc(C(F)F)nc2)n1 (single isomer, unassigned) [Example 28-50, 1-[(1S,2S,4R or 1R,2R,4S)-4-azetidin-1-yl-2-cyanocyclohexyl]-3-{[6-(difluoromethyl)pyridin-3-yl]amino}-1H-pyrazole-4-carboxamide] | 2 nM | 47 nM
2 | CC(C)(C)N[C@@H]1CC[C@H](n2cc(C(N)=O)c(Nc3ccc([C@H](O)C(F)(F)F)cc3)n2)[C@@H](C#N)C1 (single isomer, unassigned) [Example 28-52, 1-[(1S,2S,4R or 1R,2R,4S)-4-(tert-butylamino)-2-cyanocyclohexyl]-3-({4-[(1S or 1R)-2,2,2-trifluoro-1-hydroxyethyl]phenyl}amino)-1H-pyrazole-4-carboxamide] | 0.4 nM | 23 nM
3 | C[C@H](N[C@@H]1CC[C@H](n2cc(C(N)=O)c(Nc3ccc(OC(F)(F)F)cc3)n2)[C@@H](C#N)C1)C1CC1 (single isomer, unassigned) [Example 28-55, 1-[(1S,2S,4R or 1R,2R,4S)-2-cyano-4-{[(1S)-1-cyclopropylethyl]amino}cyclo-hexyl]-3-{[4-(trifluoromethoxy)phenyl]amino}-1H-pyrazole-4-carboxamide] | 4 nM | 200 nM
4 | N#C[C@H]1C[C@@H](N2CCC2)CC[C@@H]1n1cc(C(N)=O)c(Nc2ccc(OC(F)(F)F)cc2)n1 (single isomer, unassigned) [Example 28-58, 1-[(1S,2S,4S or 1R,2R,4R)-4-azetidin-1-yl-2-cyanocyclohexyl]-3-{[4-(trifluoromethoxy)phenyl]amino}-1H-pyrazole-4-carboxamide] | 0.7 nM | 23 nM
5 | N#C[C@H]1C[C@H](N2CCC2)CC[C@@H]1n1cc(C(N)=O)c(Nc2ccc(OC(F)(F)F)cc2)n1 (single isomer, unassigned) [Example 28-70, 1-[(1S,2S,4R or 1R,2R,4S)-4-azetidin-1-yl-2-cyanocyclohexyl]-3-{[4-(trifluoromethoxy)phenyl]amino}-1H-pyrazole-4-carboxamide] | 2 nM | 40 nM
6 | C[C@H](N[C@H]1CC[C@H](n2cc(C(N)=O)c(Nc3ccc(Cl)c(F)c3)n2)[C@@H](C#N)C1)C1CC1 (single isomer, unassigned) [Example 28-71, 3-[(4-chloro-3-fluorophenyl)amino]-1-[(1S,2S,4S or 1R,2R,4R)-2-cyano-4-{[(1S or 1R)-1-cyclopropylethyl]amino}cyclo-hexyl]-1H-pyrazole-4-carboxamide] | 2 nM | 97 nM
7 | N#C[C@H]1C[C@H](NC2COC2)CC[C@@H]1n1cc(C(N)=O)c(Nc2ccc(CC(F)(F)F)cc2)n1 (single isomer, unassigned) [Example 28-77, 1-[(1S,2S,4R or 1R,2R,4S)-2-cyano-4-(oxetan-3-ylamino)cyclohexyl]-3-{[4-(2,2,2-trifluoroethyl)phenyl]amino}-1H-pyrazole-4-carboxamide] | 0.7 nM | 4 nM
8 | N#C[C@H]1C[C@@H](NC2COC2)CC[C@@H]1n1cc(C(N)=O)c(Nc2ccc(CC(F)(F)F)cc2)n1 (single isomer, unassigned) [Example 28-79, 1-[(1S,2S,4S or 1R,2R,4R)-2-cyano-4-(oxetan-3-ylamino)cyclohexyl]-3-{[4-(2,2,2-trifluoroethyl)phenyl]amino}-1H-pyrazole-4-carboxamide] | 0.3 nM | 3 nM
9 | CC(=O)c1ccc(Nc2nn([C@H]3CC[C@@H](N4CCC4)C[C@@H]3C#N)cc2C(N)=O)cc1 (single isomer, unassigned) [Example 28-83, 3-[(4-acetylphenyl)amino]-1-[(1S,2S,4R or 1R,2R,4S)-4-azetidin-1-yl-2-cyanocyclohexyl]-1H-pyrazole-4-carboxamide] | 0.4 nM | 18 nM

— patent US8962608B2, “Cycloalkylnitrile pyrazole carboxamides as janus kinase inhibitors” (Merck Sharp & Dohme Corp., priority 2011, dated 2015)
